Data on 24 substances can be found in the OligoGym collection.

Values joined by “and” are separate entries in the source; they are usually repeats but may differ in a detail not shown here. Equal values may be shown once. HELM strings list units from the 5' end as sugar, base in round brackets, then linkage (d deoxyribose, r ribose, m 2'-O-methyl, p phosphodiester). Strings are as the collection lists them; they lack the last nucleoside at the 3' end of the tested compound. [moe] = 2'-O-(2-methoxyethyl) (MOE); [sp] = phosphorothioate linkage; [m5C] = 5-methylcytosine

In the data set the target is SMN2. Kind of data set: mouse, dose not given. The conditions noted are these: ASO.

Turning to “RNA1{[moe](T)[sp].[moe]([m5C])[sp].[moe](A)[sp].[moe]([m5C])[sp].[moe](T)[sp].[moe](T)[sp].[moe](T)[sp].[moe]([m5C])[sp].[moe](A)[sp].[moe](T)[sp].[moe](A)[sp].[moe](A)[sp].[moe](T)[sp].[moe](G)[sp].[moe]([m5C])p.[moe](T)[sp].[moe](G)[sp].[moe](G)}$$$$ (last 3' nucleoside missing)”, the 3 h FOB score was 2.25 score 0-7 (2×) and 2.5 score 0-7 and 2 score 0-7.

Substance “RNA1{[moe]([m5C])[sp].[moe](A)[sp].[moe]([m5C])p.[moe](T)[sp].[moe](T)[sp].[moe](T)[sp].[moe]([m5C])[sp].[moe](A)[sp].[moe](T)[sp].[moe](A)[sp].[moe](A)[sp].[moe](T)[sp].[moe](G)[sp].[moe]([m5C])[sp].[moe](T)[sp].[moe](G)[sp].[moe](G)}$$$$ (last 3' nucleoside missing)” gave a 3 h FOB score of 1 score 0-7. As for “RNA1{[moe]([m5C])[sp].[moe](A)[sp].[moe]([m5C])[sp].[moe](T)[sp].[moe](T)[sp].[moe](T)[sp].[moe]([m5C])[sp].[moe](A)[sp].[moe](T)[sp].[moe](A)[sp].[moe](A)[sp].[moe](T)[sp].[moe](G)[sp].[moe]([m5C])p.[moe](T)p.[moe](G)[sp].[moe](G)}$$$$ (last 3' nucleoside missing)”, the figure is 0 score 0-7; as for “RNA1{[moe](T)[sp].[moe]([m5C])[sp].[moe](A)[sp].[moe]([m5C])[sp].[moe](T)[sp].[moe](T)[sp].[moe](T)[sp].[moe]([m5C])p.[moe](A)[sp].[moe](T)[sp].[moe](A)[sp].[moe](A)[sp].[moe](T)[sp].[moe](G)[sp].[moe]([m5C])[sp].[moe](T)[sp].[moe](G)}$$$$ (last 3' nucleoside missing)”, 4.25 score 0-7; as for “RNA1{[moe]([m5C])[sp].[moe](T)[sp].[moe](T)[sp].[moe](T)[sp].[moe]([m5C])[sp].[moe](A)[sp].[moe](T)p.[moe](A)p.[moe](A)p.[moe](T)[sp].[moe](G)[sp].[moe]([m5C])[sp].[moe](T)[sp].[moe](G)[sp].[moe](G)}$$$$ (last 3' nucleoside missing)”, 2 score 0-7. As for “RNA1{[moe]([m5C])[sp].[moe](A)p.[moe]([m5C])p.[moe](T)p.[moe](T)p.[moe](T)[sp].[moe]([m5C])[sp].[moe](A)[sp].[moe](T)[sp].[moe](A)[sp].[moe](A)[sp].[moe](T)[sp].[moe](G)p.[moe]([m5C])p.[moe](T)p.[moe](G)[sp].[moe](G)}$$$$ (last 3' nucleoside missing)”, the figure is 0 score 0-7; as for “RNA1{[moe](A)[sp].[moe]([m5C])p.[moe](T)p.[moe](T)p.[moe](T)[sp].[moe]([m5C])[sp].[moe](A)[sp].[moe](T)[sp].[moe](A)[sp].[moe](A)[sp].[moe](T)[sp].[moe](G)p.[moe]([m5C])p.[moe](T)p.[moe](G)[sp].[moe](G)}$$$$ (last 3' nucleoside missing)”, 0 score 0-7; as for “RNA1{[moe]([m5C])[sp].[moe](T)[sp].[moe](T)[sp].[moe](T)[sp].[moe]([m5C])[sp].[moe](A)[sp].[moe](T)[sp].[moe](A)[sp].[moe](A)p.[moe](T)p.[moe](G)p.[moe]([m5C])p.[moe](T)[sp].[moe](G)[sp].[moe](G)}$$$$ (last 3' nucleoside missing)”, 0 score 0-7.

Substance “RNA1{[moe]([m5C])[sp].[moe](T)[sp].[moe](T)[sp].[moe](T)[sp].[moe]([m5C])[sp].[moe](A)[sp].[moe](T)[sp].[moe](A)[sp].[moe](A)[sp].[moe](T)[sp].[moe](G)[sp].[moe]([m5C])[sp].[moe](T)[sp].[moe](G)[sp].[moe](G)}$$$$ (last 3' nucleoside missing)” yielded a 3 h FOB score of 2.88 score 0-7. As for “RNA1{[moe](A)[sp].[moe](T)p.[moe](T)[sp].[moe]([m5C])[sp].[moe](A)[sp].[moe]([m5C])[sp].[moe](T)[sp].[moe](T)[sp].[moe](T)[sp].[moe]([m5C])[sp].[moe](A)[sp].[moe](T)[sp].[moe](A)[sp].[moe](A)[sp].[moe](T)[sp].[moe](G)[sp].[moe]([m5C])p.[moe](T)[sp].[moe](G)}$$$$ (last 3' nucleoside missing)”, the figure is 2 score 0-7; as for “RNA1{[moe]([m5C])[sp].[moe](A)[sp].[moe]([m5C])[sp].[moe](T)p.[moe](T)p.[moe](T)[sp].[moe]([m5C])[sp].[moe](A)[sp].[moe](T)[sp].[moe](A)[sp].[moe](A)[sp].[moe](T)[sp].[moe](G)[sp].[moe]([m5C])[sp].[moe](T)[sp].[moe](G)[sp].[moe](G)}$$$$ (last 3' nucleoside missing)”, 0 score 0-7. As for “RNA1{[moe]([m5C])[sp].[moe](T)[sp].[moe](T)[sp].[moe](T)p.[moe]([m5C])[sp].[moe](A)[sp].[moe](T)[sp].[moe](A)p.[moe](A)[sp].[moe](T)[sp].[moe](G)[sp].[moe]([m5C])p.[moe](T)[sp].[moe](G)[sp].[moe](G)}$$$$ (last 3' nucleoside missing)”, the figure is 0.75 score 0-7; as for “RNA1{[moe]([m5C])[sp].[moe](A)[sp].[moe]([m5C])[sp].[moe](T)[sp].[moe](T)[sp].[moe](T)[sp].[moe]([m5C])[sp].[moe](A)[sp].[moe](T)[sp].[moe](A)[sp].[moe](A)[sp].[moe](T)[sp].[moe](G)[sp].[moe]([m5C])[sp].[moe](T)[sp].[moe](G)[sp].[moe](G)[sp].[moe]([m5C])[sp].[moe](A)}$$$$ (last 3' nucleoside missing)”, 0 score 0-7; as for “RNA1{[moe](A)[sp].[moe](T)p.[moe](T)p.[moe]([m5C])[sp].[moe](A)[sp].[moe]([m5C])[sp].[moe](T)[sp].[moe](T)[sp].[moe](T)[sp].[moe]([m5C])[sp].[moe](A)[sp].[moe](T)[sp].[moe](A)[sp].[moe](A)[sp].[moe](T)[sp].[moe](G)[sp].[moe]([m5C])[sp].[moe](T)[sp].[moe](G)}$$$$ (last 3' nucleoside missing)”, 3.25 score 0-7. As for “RNA1{[moe](A)[sp].[moe]([m5C])[sp].[moe](T)[sp].[moe](T)[sp].[moe](T)[sp].[moe]([m5C])[sp].[moe](A)[sp].[moe](T)[sp].[moe](A)[sp].[moe](A)[sp].[moe](T)p.[moe](G)p.[moe]([m5C])p.[moe](T)p.[moe](G)[sp].[moe](G)}$$$$ (last 3' nucleoside missing)”, the 3 h FOB score stood at 0 score 0-7.

On to “RNA1{[moe]([m5C])[sp].[moe](A)[sp].[moe]([m5C])[sp].[moe](T)[sp].[moe](T)[sp].[moe](T)[sp].[moe]([m5C])p.[moe](A)p.[moe](T)p.[moe](A)p.[moe](A)p.[moe](T)[sp].[moe](G)[sp].[moe]([m5C])[sp].[moe](T)[sp].[moe](G)[sp].[moe](G)}$$$$ (last 3' nucleoside missing)”, for which the 3 h FOB score turned out to be 0 score 0-7.

Regarding “RNA1{[moe]([m5C])[sp].[moe](T)[sp].[moe](T)[sp].[moe](T)[sp].[moe]([m5C])[sp].[moe](A)p.[moe](T)p.[moe](A)p.[moe](A)p.[moe](T)p.[moe](G)[sp].[moe]([m5C])[sp].[moe](T)[sp].[moe](G)[sp].[moe](G)}$$$$ (last 3' nucleoside missing)”, the 3 h FOB score amounted to 1 score 0-7. In the case of “RNA1{[moe](T)[sp].[moe]([m5C])[sp].[moe](A)[sp].[moe]([m5C])[sp].[moe](T)[sp].[moe](T)[sp].[moe](T)[sp].[moe]([m5C])[sp].[moe](A)[sp].[moe](T)[sp].[moe](A)[sp].[moe](A)[sp].[moe](T)[sp].[moe](G)[sp].[moe]([m5C])[sp].[moe](T)[sp].[moe](G)[sp].[moe](G)p.[moe](T)}$$$$ (last 3' nucleoside missing)” it was 4 score 0-7; in that of “RNA1{[moe]([m5C])[sp].[moe](T)[sp].[moe](T)p.[moe](T)p.[moe]([m5C])p.[moe](A)p.[moe](T)[sp].[moe](A)[sp].[moe](A)[sp].[moe](T)[sp].[moe](G)[sp].[moe]([m5C])[sp].[moe](T)[sp].[moe](G)[sp].[moe](G)}$$$$ (last 3' nucleoside missing)”, 0 score 0-7. “RNA1{[moe](A)[sp].[moe](T)p.[moe](T)[sp].[moe]([m5C])p.[moe](A)[sp].[moe]([m5C])[sp].[moe](T)[sp].[moe](T)[sp].[moe](T)[sp].[moe]([m5C])[sp].[moe](A)[sp].[moe](T)[sp].[moe](A)[sp].[moe](A)[sp].[moe](T)[sp].[moe](G)[sp].[moe]([m5C])[sp].[moe](T)[sp].[moe](G)}$$$$ (last 3' nucleoside missing)” displayed a 3 h FOB score of 3.5 score 0-7. Take “RNA1{[moe]([m5C])[sp].[moe](A)[sp].[moe]([m5C])[sp].[moe](T)[sp].[moe](T)p.[moe](T)[sp].[moe]([m5C])[sp].[moe](A)[sp].[moe](T)[sp].[moe](A)[sp].[moe](A)[sp].[moe](T)[sp].[moe](G)[sp].[moe]([m5C])[sp].[moe](T)p.[moe](G)[sp].[moe](G)}$$$$ (last 3' nucleoside missing)”: the 3 h FOB score came out at 0 score 0-7. Substance “RNA1{[moe]([m5C])[sp].[moe](A)[sp].[moe]([m5C])p.[moe](T)[sp].[moe](T)[sp].[moe](T)[sp].[moe]([m5C])[sp].[moe](A)[sp].[moe](T)p.[moe](A)[sp].[moe](A)[sp].[moe](T)[sp].[moe](G)[sp].[moe]([m5C])[sp].[moe](T)p.[moe](G)[sp].[moe](G)}$$$$ (last 3' nucleoside missing)” registered a 3 h FOB score of 0 score 0-7. Substance “RNA1{[moe]([m5C])[sp].[moe](T)[sp].[moe](T)[sp].[moe](T)[sp].[moe]([m5C])p.[moe](A)p.[moe](T)p.[moe](A)p.[moe](A)p.[moe](T)p.[moe](G)p.[moe]([m5C])[sp].[moe](T)[sp].[moe](G)[sp].[moe](G)}$$$$ (last 3' nucleoside missing)” yielded a 3 h FOB score of 0 score 0-7. Consider “RNA1{[moe](A)[sp].[moe]([m5C])[sp].[moe](T)[sp].[moe](T)[sp].[moe](T)[sp].[moe]([m5C])[sp].[moe](A)[sp].[moe](T)[sp].[moe](A)[sp].[moe](A)[sp].[moe](T)[sp].[moe](G)[sp].[moe]([m5C])[sp].[moe](T)[sp].[moe](G)[sp].[moe](G)}$$$$ (last 3' nucleoside missing)”, for which the 3 h FOB score was found to be 1.12 score 0-7.
